Data as given in patent US9120762B2, “Salts of bicyclo-substituted pyrazolon azo derivatives, preparation method and use thereof” (Jiangsu Hengrui Medicine Co., Ltd., priority 2009, dated 2015).
Read-outs that look alike come from different tables or passages of the source.

How the values were obtained:
[1] = Solubility assay in water, 0.1% hydrochloric acid and methanol; format: physicochemical
Method: The solubility was characterized by:
The term “very soluble” refers to that 1 g (mL) of solute can be dissolved in less than 1 mL of solvent;
The term “freely soluble” refers to that 1 g (mL) of solute can be dissolved in from 1 mL to 10 mL, not including 10 mL of solvent;
The term “soluble” refers to that 1 g (mL) of solute can be dissolved in from 10 mL to 30 mL, not including 30 mL of solvent;
The term “sparingly soluble” refers to that 1g (mL) of solute can be dissolved in from 30 mL to 100 mL, not including 100 mL of solvent;
The term “slightly soluble” refers to that 1g (mL) of solute can be dissolved in from 100 mL to 1000 mL, not including 1000 mL of solvent;
The term “very slightly soluble” refers to that 1g (mL) of solute can be dissolved in from 1000 mL to 10000 mL, not including 10000 mL of solvent;
The term “practically insoluble or insoluble” refers to that 1g (mL) of solute cannot be dissolved completely in 10000 mL of solvent.

human TPOR = biological target: T1, human TPOR (Homo sapiens, UniProt P40238); test: Proliferation effect on BAF3-TPOR cell (CCK-8); format: cell-based; conditions: rate relative to rhTPO positive control
T1 construct: host or cells: BaF3 (murine pro-B cells), stably transfected, G418-selected
T1 sequence (P40238 26-635): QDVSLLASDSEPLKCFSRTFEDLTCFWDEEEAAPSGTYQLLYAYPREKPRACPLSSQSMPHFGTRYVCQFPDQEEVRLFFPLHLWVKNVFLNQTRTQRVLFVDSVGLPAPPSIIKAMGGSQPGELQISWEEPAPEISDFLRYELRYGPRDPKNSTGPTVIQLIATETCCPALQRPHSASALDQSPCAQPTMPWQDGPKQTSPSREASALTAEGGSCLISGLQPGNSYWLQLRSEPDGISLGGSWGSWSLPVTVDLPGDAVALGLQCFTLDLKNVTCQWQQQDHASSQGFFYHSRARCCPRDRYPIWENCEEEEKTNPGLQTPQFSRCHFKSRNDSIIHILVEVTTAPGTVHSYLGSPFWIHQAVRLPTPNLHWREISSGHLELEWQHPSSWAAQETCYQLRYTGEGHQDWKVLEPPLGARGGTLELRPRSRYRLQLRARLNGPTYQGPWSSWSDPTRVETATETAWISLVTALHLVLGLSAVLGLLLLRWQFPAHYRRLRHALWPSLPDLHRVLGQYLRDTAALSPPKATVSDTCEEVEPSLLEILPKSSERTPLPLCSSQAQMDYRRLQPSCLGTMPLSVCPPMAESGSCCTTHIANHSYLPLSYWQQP
Method: (1) Plasmid constructs: based on the TPO receptor (TPOR) sequence information from Entrez (Gene ID: 4325, Refseq: NM_005373), dual-site mutation was performed on EX-B0010-M02 plasmid by using QuikChange® Multi Site Directed Mutagenesis Kit (Stratagene). The sequence of primers containing multi-sites mutation was designed as follows: […]
The E. coli DH5α competent cells were transformed with mutated plasmid, and positive colonies were picked up through ampicillin selection. The mutation result was confirmed by sequence analysis.
(2) BAF3-TPOR stable transfected cell line: the following method was used to construct the BaF3 cell which stably over-expressed functional human TPOR. The successfully mutated EX-B0010-M02 plasmid ([…]) which expressed human TPOR and screening gene neomycin was transfected into wild-type BaF3 cells (1×10^7) by electroporation at 250V for 18 ms using an electric pulse generator (Electro Square Porator ECM830, BTX Division of Genetronic, Inc. US). The stable transfected cells BAF3-TPOR were selected with G418 (Gibco, US), then incubated in RPMI1640 medium plus 10% FBS (Gibco, US), […] G418, 5 ng/mL, rmIL-3 (Chemicon, US).
(1) Washing cells by centrifugation: a suitable amount of cell suspension was centrifuged at 1000 rpm for 5 minutes, and the supernatant was discarded. 10 mL of cell culture media without IL-3 was added. Then the resulting cell suspension was centrifuged at 1000 rpm for 5 minutes, and the supernatant was discarded.
(2) 1 mL of cell culture media without IL-3 was added to beat upon them to equality, and the number of a suitable amount of cell suspension was counted after dilution.
(3) According to the result of the cell counting, a cell suspension in a concentration of 100,000 cell/mL was prepared.
(4) 100 μL of cell suspension was transferred to each well of 96-well culture plate, and there were 3 parallel wells, that is, there were a blank control group (B), a negative control group (N), a positive control group of TPO (P) and a test compound group (S).
(5) The test compound was dissolved in DMSO to prepare a 10 mM stock solution, and then the solution was diluted with RPMI 1640 medium into a series of test samples at different concentration: 30 μM, 10 μM, 3 μM, 1 μM, 0.3 μM, 0.1 μM, 0.03 μM, 0.01 μM, 0.003 μM, 0.001 μM.
(6) 10 μL of test compound solution was transferred to each well respectively; 1 μL of rhTPO (10 ng/mL) was added to positive control well.
(7) The plates were incubated in an incubator at 5% CO2 and 37° C. for 24 hours.
(8) After incubation, 10 μL of CCK-8 solution was added to each well and the plates were incubated in the incubator for another 24 hours.
(9) OD value was detected at 450 nm by VICTORS (Perkin Elmer 1420-120) plate reader.
(1) The proliferation rate was calculated as follows: Rate=[(S−B)/(P−B)]*100%
S: OD value of wells which contain test compound.
B: OD value of blank control wells
P: OD value of positive control wells
(2) The EC50 value was calculated by Origin 7.0 software.

[2] = Pharmacokinetics assay in rats; format: in vivo, SD rats; conditions: SD rats, intragastric, 50 mg/Kg (as free acid), 50 mg/kg; for MRT / Tmax / Vd/F / AUC / CL/F / half-life / Cmax: both sexes, SD, rat, plasma, po; for MRT: read-out: Mean Residence Time MRT; for Tmax: read-out: Time to peak Tmax; for Vd/F: read-out: Apparent Distribution Volume Vz/F; for AUC: read-out: Area Under Curve AUC; for CL/F: read-out: Clearance CL/F (converted); for half-life: read-out: Half-Life t½ (converted); for Cmax: read-out: Plasma Conc. Cmax
Method: The compounds of the present disclosure were administrated intragastrically to rats to determine the drug concentration in plasma at different time points by HPLC-UV. The pharmacokinetic behavior of the compounds of the present disclosure was studied and evaluated in rats. […] Healthy adult SD rats, male and female in half, were purchased from SINO-BRITSH SIPPR/BK LAB.ANIMAL LTD., Colo., License number: SCXK (Shanghai) 2003-0002 The test compound was diluted with 1% sodium carboxymethyl cellulose to 5 mg/mL (calculated as the free acid form) of suspension before use. Healthy adult SD rats, male and female in half, were divided into 23 groups. […] The plasma samples were stored at −20° C. until analysis. The rats were fed 2 hours after administration. […] Then the mixture was mixed for 3 minute using a vortexer and centrifuged for 10 minutes at 13,500 rpm. 40 μL of the supernatant was analyzed by HPLC-UV. The compartmental model of pharmacokinetics was fitted for the test compounds and the major pharmacokinetic parameters were calculated in which Cmax and tmax were the actually measured values.

Structure (SMILES)	solubility ([1]; 0.1% hydrochloric acid, simulated gastric fluid, 0.1% hydrochloric acid, read-out: solubility) [µg/mL]	solubility ([1]; methanol) [µg/mL]	solubility ([1]; water) [µg/mL]	EC50 (human TPOR) [µM]	Area Under Curve AUC [2] [µg·h/mL]	Clearance CL/F [2] [mL/min/kg]	Half-Life t½ [2] [h]	Plasma Conc. Cmax [2] [ng/mL]	MRT [2] [h]	Tmax [2] [h]	Time to peak Tmax [2] [h]	Vd/F [2] [L/kg]	AUC [2] [µg·h/mL]	CL/F [2] [mL/min/kg]	half-life [2] [h]	Cmax [2] [ng/mL]	Mean Residence Time MRT [2] [h]
CC1=NN(c2ccc3c(c2)CCC3)C(=O)/C1=N\Nc1cccc(-c2ccc(C(=O)O)o2)c1O [Example 16a, (Z)-5-{2-hydroxy-3-[N′-(1-indan-5-yl-3-methyl-5-oxo-1,5-dihydro-pyrazol-4-ylidene)-hydrazino]-phenyl}-furan-2-carboxylic acid]	< 1	<1	<1	0.1	15.0 ± 17.2	49.7 ± 45.8	1.82 ± 0.68	6810 ± 6230	4.03 ± 2.55	2.75 ± 0.96							
CC1=NN(c2ccc3c(c2)CCCC3)C(=O)/C1=N\Nc1cccc(-c2ccc(C(=O)O)o2)c1O [Example 15, (Z)-5-(2-hydroxy-3-{N′-[3-methyl-5-oxo-1-(5,6,7,8-tetrahydro-naphthalen-2-yl)-1,5-dihydro-pyrazol-4-ylidene]-hydrazino}-phenyl)-furan-2-carboxylic acid bis-(L-arginine)]				0.016	168 ± 118	12.6 ± 16.6	6.56 ± 3.80	23300 ± 13600			2.0 ± 1.16						
CC1=NN(c2ccc3c(c2)CCCC3)C(=O)/C1=N\Nc1cccc(-c2coc(C(=O)O)c2)c1O.NCCO.NCCO [Example 22, (Z)-4-(2-Hydroxy-3-{N′-[3-methyl-5-oxo-1-(5,6,7,8-tetrahydro-naphthal-2-yl)-1,5-dihydro-pyrazol-4-ylidene]-hydrazino}-phenyl)-furan-2-carboxylic acid bis-(ethanolamine)]				0.039					14.8 ± 1	5 ± 2		3.41 ± 1.75	603 ± 240	4	9.95 ± 0.6	39800 ± 18200	
CC1=NN(c2ccc3c(c2)CCCC3)C(=O)/C1=N\Nc1cccc(-c2ccc(C(=O)O)o2)c1O [Example 13, (Z)-5-(2-hydroxy-3-{N′-[3-methyl-5-oxo-1-(5,6,7,8-tetrahydro-naphthalen-2-yl)-1,5-dihydro-pyrazol-4-ylidene]-hydrazino}-phenyl)-furan-2-carboxylic acid bis-(dibenzylethylenediamine)]				0.02	42.8 ± 33.2	27.2 ± 13.8	5.70 ± 2.50	8100 ± 3350			1.38 ± 1.11						
CC1=NN(c2ccc3c(c2)C(C)(C)CC3)C(=O)/C1=N\Nc1cccc(-c2ccc(C(=O)O)o2)c1O [Example 5, (Z)-5-(3-{N′-[1-(3,3-dimethyl-indan-5-yl)-3-methyl-5-oxo-1,5-dihydro-pyrazol-4-ylidene]-hydrazino}-2-hydroxy-phenyl)-furan-2-carboxylic acid bis-(diethylamine)]				0.019	255 ± 95	3.67 ± 1.2	15.0 ± 6.2	19800 ± 3800			3.25 ± 1.5						20.8 ± 9.1
CC1=NN(c2ccc3c(c2)CCCC3)C(=O)/C1=N\Nc1cccc(-c2ccc(C(=O)O)o2)c1O [Example 9, (Z)-5-(2-hydroxy-3-{N′-[3-methyl-5-oxo-1-(5,6,7,8-tetrahydro-naphthalen-2-yl)-1,5-dihydro-pyrazol-4-ylidene]-hydrazino}-phenyl)-furan-2-carboxylic acid bis-(diethylamine)]				0.014	146 ± 69.7	6.52 ± 2.42	9.65 ± 2.48	21200 ± 10400			2.88 ± 2.59						
CC1=NN(c2ccc3c(c2)CCCC3)C(=O)/C1=N\Nc1cccc(-c2coc(C(=O)O)c2)c1O [Example 22f, (Z)-4-(2-hydroxy-3-{N′-[3-methyl-5-oxo-1-(5,6,7,8-tetrahydro-naphthal-2-yl)-1,5-dihydro-pyrazol-4-ylidene]-hydrazino}-phenyl)-furan-2-carboxylic acid]				0.042					11.8 ± 4.5	4.25 ± 1.26		8.49 ± 2.16	151 ± 97	11.5	9.21 ± 1.57	8730 ± 2580	
